Measured values published in ChEMBL document CHEMBL4000248, “Synthesis and biological evaluation of cyclic imides incorporating benzenesulfonamide moieties as carbonic anhydrase I, II, IV and IX inhibitors” (Bioorg Med Chem, 2017).

target: Carbonic anhydrase 9 (Homo sapiens, UniProt Q16790); assay: Inhibition of recombinant human carbonic anhydrase 9 incubated for 10 mins prior to testing by stopped flow CO2 hydrase assay

`CC(C)(C)c1ccc2c(c1)C(=O)N(CCc1ccc(S(N)(=O)=O)cc1)C2=O` and `Cc1ccc2c(c1)C(=O)N(CCc1ccc(S(N)(=O)=O)cc1)C2=O` are within 1.5-fold of each other in Ki: 459 nM for the first, 390 nM for the second.

First: NS(=O)(=O)c1ccc(CCN2C(=O)c3nccnc3C2=O)cc1
Second: NS(=O)(=O)c1ccc(CCN2C(=O)c3ccccc3C2=O)cc1
The Ki of the first is 14-fold higher: 4190 nM for the first, 296 nM for the second.

`NS(=O)(=O)c1ccc(N2C(=O)C3C(C2=O)C2(Cl)C(Cl)=C(Cl)C3(Cl)C2(Cl)Cl)cc1` (centres undefined) and `NS(=O)(=O)c1ccc(CN2C(=O)C3C(C2=O)C2(Cl)C(Cl)=C(Cl)C3(Cl)C2(Cl)Cl)cc1` (centres undefined) are within 1.5-fold of each other in Ki: 13.7 nM for the first, 16.9 nM for the second.

First: NS(=O)(=O)c1ccc(CCN2C(=O)c3ccc([N+](=O)[O-])cc3C2=O)cc1
Second: NS(=O)(=O)c1ccc(CCN2C(=O)c3cccc([N+](=O)[O-])c3C2=O)cc1
The Ki of the first is 1.6-fold lower: 1640 nM for the first, 2670 nM for the second. The first binds more tightly here.

Compared with `NS(=O)(=O)c1ccc(CCN2C(=O)c3c(Br)c(Br)c(Br)c(Br)c3C2=O)cc1`, `NS(=O)(=O)c1ccc(CCN2C(=O)c3cc(Cl)c(Cl)cc3C2=O)cc1` is 5.6-fold lower in Ki: 2390 nM for the first, 428 nM for the second. The second binds more tightly here.

Compared with `NS(=O)(=O)c1ccc(CCN2C(=O)C3C(C2=O)C2(Cl)C(Cl)=C(Cl)C3(Cl)C2(Cl)Cl)cc1` (centres undefined), `NS(=O)(=O)c1ccc(CCN2C(=O)[C@H]3CC=CC[C@H]3C2=O)cc1` is 2.6-fold higher in Ki: 114 nM for the first, 296 nM for the second.

`NS(=O)(=O)c1ccc(CCN2C(=O)CCC2=O)cc1` and `NS(=O)(=O)c1ccc(CCN2C(=O)C=CC2=O)cc1` are within 1.5-fold of each other in Ki: 296 nM for the first, 274 nM for the second.
